Data as given in patent US20180016593A1, “HERBICIDE-RESISTANT SUNFLOWER PLANTS, POLYNUCLEOTIDES ENCODING HERBICIDE-RESISTANT ACETOHYDROXYACID SYNTHASE LARGE SUBUNIT PROTEINS, AND METHODS OF USE” (priority 2005, published 2018).
Read-outs that look alike come from different tables or passages of the source.

How the values were obtained:
Assay type in all cases: in vivo, Helianthus annuus
[1] = test system: sunflower GM40 (Manteiner Line, A122T); test: Greenhouse whole-plant imazapir dose response (Example 8); conditions: 14 DAT
Protocol: (§1) A greenhouse study was conducted to quantify and contrast the imazapir sensivity of the mutants A122T and A205V in different genetic backgrounds at the whole plant level in sunflower. Seeds of the different sunflower lines that were used in this study were obtained under field conditions.
(§2) Seeds were sown in Petri dishes and, after germination, plantlets were transplanted to pots of 10 cm of diameter in a potting media consisting of equal parts of vermiculite, soil and sand. Plants were grown in a greenhouse under natural light conditions supplemented with 400 W sodium halide lamps to provide a 16 hrs daylength. Day/night temperatures were 25 and 20° C., respectively. At the V2 stage 10 plants of each genotype were randomly assigned to each treatment consisting of […] imazapir doses (0, 40, 80, 160, 240, 320, 400 and 480 g ai/ha), and a zero-time biomass determination. Experiment was arranged as a randomized block design with a full factorial (sunflower line×treatment) arrangement of treatments and 10 replications.
(§3) On the day of herbicide application ten plants of each genotype were cut at the cotyledonal node and dried at 60° C. for 48 hrs zero-time for dried weight determination.
(§4) Height was determined as the distance between the cotyledonal node and the apex of each plant. For root biomass determination, each plant was taken from the pot and the potting media was washed out from the roots. Above ground biomass data from each line were converted to biomass accumulation after application by subtracting the appropriate average zero-time biomass from each sample. Dry biomass data were converted to percentages of the untreated control plants within each line to allow direct comparisons between groups. […]

[2] = test system: sunflower IR79 (Restorer Line, A205V); test: as above; conditions: 14 DAT
Protocol: as §1, §2, §3, §4

[3] = test system: sunflower GIM 5-7 (Manteiner Line, A205V); test: as above; conditions: GIM5-7, 14 DAT
Protocol: as §1, §2, §3, §4

[4] = test system: sunflower GM1606 (Manteiner Line, A122T); test: as above; conditions: 14 DAT
Protocol: as §1, §2, §3, §4

[5] = test system: sunflower TH9 (Hybrid, A205V); conditions: 14 DAT

CC(C)C1(C)N=C(c2ncccc2C(=O)O)NC1=O (stereo not shown) [imazapyr]
biomass accumulation (above ground dry weight) ([1]; 0.5x (40 g ai/ha)): 96.5 % of untreated plots | plant height ([1]; 0.5x (40 g ai/ha)): 99.6 % of untreated plots | root dry weight ([1]; 0.5x (40 g ai/ha)): 100 % of untreated plots | biomass accumulation (above ground dry weight) ([1]; 1x (80 g ai/ha)): 94.1 % of untreated plots | plant height ([1]; 1x (80 g ai/ha)): 97.4 % of untreated plots | root dry weight ([1]; 1x (80 g ai/ha)): 100 % of untreated plots | biomass accumulation (above ground dry weight) ([1]; 2x (160 g ai/ha)): 97.6 % of untreated plots | plant height ([1]; 2x (160 g ai/ha)): 95.2 % of untreated plots | root dry weight ([1]; 2x (160 g ai/ha)): 100 % of untreated plots | biomass accumulation (above ground dry weight) ([1]; 3x (240 g ai/ha)): 95.8 % of untreated plots | plant height ([1]; 3x (240 g ai/ha)): 93.0 % of untreated plots | root dry weight ([1]; 3x (240 g ai/ha)): 92.2 % of untreated plots | biomass accumulation (above ground dry weight) ([1]; 4x (320 g ai/ha)): 88.3 % of untreated plots | plant height ([1]; 4x (320 g ai/ha)): 93.0 % of untreated plots | root dry weight ([1]; 4x (320 g ai/ha)): 98.1 % of untreated plots | biomass accumulation (above ground dry weight) ([1]; 5x (400 g ai/ha)): 85.6 % of untreated plots | plant height ([1]; 5x (400 g ai/ha)): 93.9 % of untreated plots | root dry weight ([1]; 5x (400 g ai/ha)): 84.2 % of untreated plots | biomass accumulation (above ground dry weight) ([1]; 6x (480 g ai/ha)): 76.8 % of untreated plots | plant height ([1]; 6x (480 g ai/ha)): 84.3 % of untreated plots | root dry weight ([1]; 6x (480 g ai/ha)): 74.3 % of untreated plots | biomass accumulation (above ground dry weight) ([2]; 0.5x (40 g ai/ha)): 94.4 % of untreated plots | plant height ([2]; 0.5x (40 g ai/ha)): 92.8 % of untreated plots | root dry weight ([2]; 0.5x (40 g ai/ha)): 98.6 % of untreated plots | biomass accumulation (above ground dry weight) ([2]; 1x (80 g ai/ha)): 74.0 % of untreated plots | plant height ([2]; 1x (80 g ai/ha)): 80.9 % of untreated plots | root dry weight ([2]; 1x (80 g ai/ha)): 53.4 % of untreated plots | biomass accumulation (above ground dry weight) ([2]; 2x (160 g ai/ha)): 67.7 % of untreated plots | plant height ([2]; 2x (160 g ai/ha)): 74.9 % of untreated plots | root dry weight ([2]; 2x (160 g ai/ha)): 42.5 % of untreated plots | biomass accumulation (above ground dry weight) ([2]; 3x (240 g ai/ha)): 49.1 % of untreated plots | plant height ([2]; 3x (240 g ai/ha)): 55.7 % of untreated plots | root dry weight ([2]; 3x (240 g ai/ha)): 38.4 % of untreated plots | biomass accumulation (above ground dry weight) ([2]; 4x (320 g ai/ha)): 44.5 % of untreated plots | plant height ([2]; 4x (320 g ai/ha)): 52.8 % of untreated plots | root dry weight ([2]; 4x (320 g ai/ha)): 31.5 % of untreated plots | biomass accumulation (above ground dry weight) ([2]; 5x (400 g ai/ha)): 40.1 % of untreated plots | plant height ([2]; 5x (400 g ai/ha)): 41.7 % of untreated plots | root dry weight ([2]; 5x (400 g ai/ha)): 23.3 % of untreated plots | biomass accumulation (above ground dry weight) ([2]; 6x (480 g ai/ha)): 35.3 % of untreated plots | plant height ([2]; 6x (480 g ai/ha)): 33.2 % of untreated plots | root dry weight ([2]; 6x (480 g ai/ha)): 21.9 % of untreated plots | biomass accumulation (above ground dry weight) ([3]; 0.5x (40 g ai/ha)): 92.9 % of untreated plots | plant height ([3]; 0.5x (40 g ai/ha)): 79.1 % of untreated plots | root dry weight ([3]; 0.5x (40 g ai/ha)): 79.2 % of untreated plots | biomass accumulation (above ground dry weight) ([3]; 1x (80 g ai/ha)): 75.1 % of untreated plots | plant height ([3]; 1x (80 g ai/ha)): 76.7 % of untreated plots | root dry weight ([3]; 1x (80 g ai/ha)): 56.3 % of untreated plots | biomass accumulation (above ground dry weight) ([3]; 2x (160 g ai/ha)): 55.1 % of untreated plots | plant height ([3]; 2x (160 g ai/ha)): 57.7 % of untreated plots | root dry weight ([3]; 2x (160 g ai/ha)): 40.6 % of untreated plots | biomass accumulation (above ground dry weight) ([3]; 3x (240 g ai/ha)): 45.6 % of untreated plots | plant height ([3]; 3x (240 g ai/ha)): 55.3 % of untreated plots | root dry weight ([3]; 3x (240 g ai/ha)): 40.2 % of untreated plots | biomass accumulation (above ground dry weight) ([3]; 4x (320 g ai/ha)): 31.8 % of untreated plots | plant height ([3]; 4x (320 g ai/ha)): 27.3 % of untreated plots | root dry weight ([3]; 4x (320 g ai/ha)): 34.0 % of untreated plots | biomass accumulation (above ground dry weight) ([3]; 5x (400 g ai/ha)): 34.2 % of untreated plots | plant height ([3]; 5x (400 g ai/ha)): 37.2 % of untreated plots | root dry weight ([3]; 5x (400 g ai/ha)): 48.5 % of untreated plots | biomass accumulation (above ground dry weight) ([3]; 6x (480 g ai/ha)): 36.8 % of untreated plots | plant height ([3]; 6x (480 g ai/ha)): 30.0 % of untreated plots | root dry weight ([3]; 6x (480 g ai/ha)): 43.1 % of untreated plots | biomass accumulation (above ground dry weight) ([4]; 0.5x (40 g ai/ha)): 100.0 % of untreated plots | plant height ([4]; 0.5x (40 g ai/ha)): 97.0 % of untreated plots | root dry weight ([4]; 0.5x (40 g ai/ha)): 100 % of untreated plots | biomass accumulation (above ground dry weight) ([4]; 1x (80 g ai/ha)): 100.0 % of untreated plots | plant height ([4]; 1x (80 g ai/ha)): 95.7 % of untreated plots | root dry weight ([4]; 1x (80 g ai/ha)): 100.0 % of untreated plots | biomass accumulation (above ground dry weight) ([4]; 2x (160 g ai/ha)): 97.6 % of untreated plots | plant height ([4]; 2x (160 g ai/ha)): 95.2 % of untreated plots | root dry weight ([4]; 2x (160 g ai/ha)): 92.5 % of untreated plots | biomass accumulation (above ground dry weight) ([4]; 3x (240 g ai/ha)): 95.4 % of untreated plots | plant height ([4]; 3x (240 g ai/ha)): 95.7 % of untreated plots | root dry weight ([4]; 3x (240 g ai/ha)): 85.2 % of untreated plots | biomass accumulation (above ground dry weight) ([4]; 4x (320 g ai/ha)): 90.5 % of untreated plots | plant height ([4]; 4x (320 g ai/ha)): 94.1 % of untreated plots | root dry weight ([4]; 4x (320 g ai/ha)): 87.0 % of untreated plots | biomass accumulation (above ground dry weight) ([4]; 5x (400 g ai/ha)): 85.3 % of untreated plots | plant height ([4]; 5x (400 g ai/ha)): 94.3 % of untreated plots | root dry weight ([4]; 5x (400 g ai/ha)): 88.1 % of untreated plots | biomass accumulation (above ground dry weight) ([4]; 6x (480 g ai/ha)): 83.0 % of untreated plots | plant height ([4]; 6x (480 g ai/ha)): 91.4 % of untreated plots | root dry weight ([4]; 6x (480 g ai/ha)): 69.5 % of untreated plots | Phytotoxicity Index ([5]; 0.5x (40 g ai/ha)): 0 | biomass accumulation (above ground dry weight) ([5]; 0.5x (40 g ai/ha)): 91.7 % of untreated plots | plant height ([5]; 0.5x (40 g ai/ha)): 100.0 % of untreated plots | root dry weight ([5]; 0.5x (40 g ai/ha)): 81.5 % of untreated plots | Phytotoxicity Index ([5]; 1x (80 g ai/ha)): 0 | biomass accumulation (above ground dry weight) ([5]; 1x (80 g ai/ha)): 81.7 % of untreated plots | plant height ([5]; 1x (80 g ai/ha)): 100.0 % of untreated plots | root dry weight ([5]; 1x (80 g ai/ha)): 84.9 % of untreated plots | Phytotoxicity Index ([5]; 2x (160 g ai/ha)): 1.6 | biomass accumulation (above ground dry weight) ([5]; 2x (160 g ai/ha)): 54.7 % of untreated plots | plant height ([5]; 2x (160 g ai/ha)): 78.9 % of untreated plots | root dry weight ([5]; 2x (160 g ai/ha)): 58.8 % of untreated plots | Phytotoxicity Index ([5]; 3x (240 g ai/ha)): 5.1 | biomass accumulation (above ground dry weight) ([5]; 3x (240 g ai/ha)): 35.7 % of untreated plots | plant height ([5]; 3x (240 g ai/ha)): 50.0 % of untreated plots | root dry weight ([5]; 3x (240 g ai/ha)): 34.1 % of untreated plots | Phytotoxicity Index ([5]; 4x (320 g ai/ha)): 8.4 | biomass accumulation (above ground dry weight) ([5]; 4x (320 g ai/ha)): 25.3 % of untreated plots | plant height ([5]; 4x (320 g ai/ha)): 38.1 % of untreated plots | root dry weight ([5]; 4x (320 g ai/ha)): 27.3 % of untreated plots | Phytotoxicity Index ([5]; 5x (400 g ai/ha)): 8.9 | biomass accumulation (above ground dry weight) ([5]; 5x (400 g ai/ha)): 19.8 % of untreated plots | plant height ([5]; 5x (400 g ai/ha)): 31.8 % of untreated plots | root dry weight ([5]; 5x (400 g ai/ha)): 29.9 % of untreated plots | Phytotoxicity Index ([5]; 6x (480 g ai/ha)): 8.9 | biomass accumulation (above ground dry weight) ([5]; 6x (480 g ai/ha)): 19.5 % of untreated plots | plant height ([5]; 6x (480 g ai/ha)): 34.7 % of untreated plots | root dry weight ([5]; 6x (480 g ai/ha)): 22.1 % of untreated plots
